According to patent publication US20260364184A1, “COMPOUND BASED ON OXOISOINDOLINYL-SUBSTITUTED TETRAHYDROPYRIMIDINE-DIONE AND USE THEREOF” (GLUETACS THERAPEUTICS (SHANGHAI) CO., LTD., priority 2023, published 2026):
Read-outs that look alike come from different tables or passages of the source.

Tested on: Human myeloid monocytic leukemia cell line (MV-4-11)
Assay: Inhibition of MV-4-11 cell proliferation (CellTiter luminescent viability)
Type: cell-based
Conditions: Homo sapiens, MV4-11; for inhibition at 0.01 µM: read-out: Inhibition Rate at 10 nM (%); for inhibition at 0.5 µM: read-out: Inhibition Rate at 500 nM (%)
Protocol: The tumor cells used herein were cultured in a cell culture medium listed in table 3 at 37 °C in an incubator with 5% CO2. Prior to experimentation, all cell lines used were correctly identified by STR profiling, and tested negative for mycoplasma contamination using a mycoplasma detection kit through routine screenings.
The IC50 values of the compounds of the present disclosure (including the compounds in Table 1, Table 2, and Examples 1-468) were determined using the CellTiter-Meiluncell Luminescent Cell Viability Assay Kit from Dalian Meilun Biotech Co., Ltd. The detailed procedure is as follows: Tumor cells were seeded in 96-well cell culture plates at the densities specified in Table 4. On the following day, the test compounds of the present disclosure were subjected to serial dilution. The dilution can be performed according to one of the following two methods: • (1) The first dilution method: The test compounds of the present disclosure (including the compounds in Table 1, Table 2, and Examples 1-468) were subjected to 5-fold serial dilutions starting from a highest concentration of 2000 μM, resulting in a total of 9 concentrations from high to low (2000, 400, 80, 16, 3.2, 0.64, 0.128, 0.0256, 0.00512 μM). Subsequently, 0.5 μL of the test compound dilution was transferred into the 96-well plate containing the cells, with each well containing 100 μL of cell culture medium. […] Into the 96-well plate, the diluted test compounds and corresponding detection reagents were added, resulting in final test compound concentrations of 500 nM and 10 nM, respectively. The experimental procedure is described below using the diluted 2 μM test compound as an example.
0.5 μL of the aforementioned diluted compound of the present disclosure (including the compounds in Table 1, Table 2, and Examples 1-468) was added to the seeded cells in 100 μL of medium, yielding a final test compound concentration of 10 nM. After the cells were treated with the compounds of the present disclosure for a specified period, the cell viability assay reagent was added to the culture medium according to the kit's instructions to determine cell viability. […] All controls were treated using the same procedure as the compounds of the present disclosure. The growth inhibition curves for the compounds of the present disclosure were plotted using Prism GraphPad software, and the IC50 values were calculated therefrom.

[1] = Table IB2, ALK inhibitor-based, MV-4-11, 10 nM, 96 hours
[2] = Table IB2, ALK inhibitor-based, MV-4-11, 500 nM, 96 hours
[3] = Table IL2, BCR-ABL inhibitor-based, MV-4-11, 10 nM, 96 hours
[4] = Table IL2, BCR-ABL inhibitor-based, MV-4-11, 500 nM, 96 hours
[5] = Table IG2, FAK inhibitor-based, MV-4-11, 10 nM, 96 hours
[6] = Table IG2, FAK inhibitor-based, MV-4-11, 500 nM, 96 hours

`COc1cc(N2CCC(N(C)CC3CCN(c4cccc5c4C(=O)N(N4CCC(=O)NC4=O)C5=O)CC3)CC2)ccc1Nc1ncc(Cl)c(Nc2ccccc2P(C)(C)=O)n1` [GT-08254, 4-(4-(((1-(4-((5-chloro-4-((2-(dimethylphosphoryl)phenyl)amino)pyrimidin-2-yl)amino)-3-methoxyphenyl)piperidin-4-yl)(methyl)amino)methyl)piperidin-1-yl)-2-(2,4-dioxotetrahydropyrimidin-1(2H)-yl)isoindoline-1,3-dione] showed an inhibition at 0.01 µM [1] of 45 to 55% and an inhibition at 0.5 µM [2] of 60 to 80%.

Compound `Cn1c2ccncc2c2ccc(-c3cnc(N4CCN(CC5CCN(c6cccc7c6C(=O)N(N6CCC(=O)NC6=O)C7=O)CC5)CC4)c(C(F)(F)F)c3)cc21` [GT-08561, 2-(2,4-dioxotetrahydropyrimidin-1(2H)-yl)-4-(4-((4-(5-(5-methyl-5H-pyrido[4,3-b]indol-7-yl)-3-(trifluoromethyl)pyridin-2-yl)piperazin-1-yl)methyl)piperidin-1-yl)isoindoline-1,3-dione] has an inhibition at 0.01 µM (Table IJ2, Tau inhibitor-based, MV-4-11, 10 nM, 96 hours) of 0 to 5% and an inhibition at 0.5 µM (Table IJ2, Tau inhibitor-based, MV-4-11, 500 nM, 96 hours) of 50 to 60%.

`C[C@@H]1CNC(=O)c2cc3ccc(C(=O)Nc4cnn(Cc5ccc(N6CCN(CC7CCN(c8ccc9c(c8)C(=O)N(N8CCC(=O)NC8=O)C9=O)CC7)CC6)cc5)c4)nc3n21` [GT-08255, (R)—N-(1-(4-(4-((1-(2-(2,4-dioxotetrahydropyrimidin-1(2H)-yl)-1,3-dioxoisoindolin-5-yl)piperidin-4-yl)methyl)piperazin-1-yl)benzyl)-1H-pyrazol-4-yl)-9-methyl-6-oxo-6,7,8,9-tetrahydropyrido[3′,2′: 4,5]pyrrolo[1,2-a]pyrazine-2-carboxamide] gave an inhibition at 0.01 µM (MV-4-11, 10 nM) of -15 to -5% and an inhibition at 0.5 µM (MV-4-11, 500 nM) of 50 to 70%.

Work on `Cc1ccc(C(=O)Nc2ccc(N3CCN(Cc4ccc5c(c4)CN(N4CCC(=O)NC4=O)C5=O)CC3)c(C(F)(F)F)c2)cc1C#Cc1cnc2cccnn12` [GT-08218, N-(4-(4-((2-(2,4-dioxotetrahydropyrimidin-1(2H)-yl)-1-oxoisoindolin-5-yl)methyl)piperazin-1-yl)-3-(trifluoromethyl)phenyl)-3-(imidazo[1,2-b]pyridazin-3-ylethynyl)-4-methylbenzamide] yielded an inhibition at 0.01 µM [3] of 5 to 10% and an inhibition at 0.5 µM [4] of 80 to 100%.

In the case of `CN(c1nccnc1CNc1nc(Nc2ccc(N3CCC(N4CCN(Cc5ccc6c(c5)CN(N5CCC(=O)NC5=O)C6=O)CC4)CC3)cc2)ncc1C(F)(F)F)S(C)(=O)=O` [GT-08138, N-(3-(((2-((4-(4-(4-((2-(2,4-dioxotetrahydropyrimidin-1(2H)-yl)-1-oxoisoindolin-5-yl)methyl)piperazin-1-yl)piperidin-1-yl)phenyl)amino)-5-(trifluoromethyl)pyrimidin-4-yl)amino)methyl)pyrazin-2-yl)-N-methylmethanesulfonamide], the inhibition at 0.01 µM [5] was 20 to 30% and the inhibition at 0.5 µM [6] was 80 to 100%.

`COc1cc(N2CCC(N3CCN(CC4CCN(c5ccc6c(c5)C(=O)N(N5CCC(=O)NC5=O)C6=O)CC4)CC3)CC2)ccc1Nc1ncc(Cl)c(Nc2ccccc2P(C)(C)=O)n1` [GT-08251, 5-(4-((4-(1-(4-((5-chloro-4-((2-(dimethylphosphoryl)phenyl)amino)pyrimidin-2-yl)amino)-3-methoxyphenyl)piperidin-4-yl)piperazin-1-yl)methyl)piperidin-1-yl)-2-(2,4-dioxotetrahydropyrimidin-1(2H)-yl)isoindoline-1,3-dione] showed an inhibition at 0.01 µM [1] of 30 to 45% and an inhibition at 0.5 µM [2] of 60 to 80%.

Work on `CC(C)(O)c1cc2nn(C3CCN(Cc4ccc5c(c4)CN(N4CCC(=O)NC4=O)C5=O)CC3)cc2cc1NC(=O)c1cccc(C(F)(F)F)n1` [GT-05746, N-(2-(1-((2-(2,4-dioxotetrahydropyrimidin-1(2H)-yl)-1-oxoisoindolin-5-yl)methyl)piperidin-4-yl)-6-(2-hydroxypropan-2-yl)-2H-indazol-5-yl)-6-(trifluoromethyl) picolinamide] yielded an inhibition at 0.01 µM (Table IA3, IRAK4 inhibitor-based, MV-4-11, 10 nM, 96 hours) of 10 to 20% and an inhibition at 0.5 µM (Table IA3, IRAK4 inhibitor-based, MV-4-11, 500 nM, 96 hours) of 60 to 80%.

Compound `C[C@@H]1CNC(=O)c2cc3ccc(C(=O)Nc4cnn(Cc5ccc(N6CCN(CC7CCN(c8cccc9c8C(=O)N(N8CCC(=O)NC8=O)C9=O)CC7)CC6)cc5)c4)nc3n21` [GT-08256, (R)—N-(1-(4-(4-((1-(2-(2,4-dioxotetrahydropyrimidin-1(2H)-yl)-1,3-dioxoisoindolin-4-yl)piperidin-4-yl)methyl)piperazin-1-yl)benzyl)-1H-pyrazol-4-yl)-9-methyl-6-oxo-6,7,8,9-tetrahydropyrido[3′,2′: 4,5]pyrrolo[1,2-a]pyrazine-2-carboxamide] has an inhibition at 0.01 µM (MV-4-11, 10 nM) of 20 to 30% and an inhibition at 0.5 µM (MV-4-11, 500 nM) of 80 to 100%.

With `Cc1ccc(C(=O)Nc2ccc(CN3CCN(CC4CCN(c5cccc6c5C(=O)N(N5CCC(=O)NC5=O)C6=O)CC4)CC3)c(C(F)(F)F)c2)cc1C#Cc1cnc2cccnn12` [GT-08353, N-(4-((4-((1-(2-(2,4-dioxotetrahydropyrimidin-1(2H)-yl)-1,3-dioxoisoindolin-4-yl)piperidin-4-yl)methyl)piperazin-1-yl)methyl)-3-(trifluoromethyl)phenyl)-3-(imidazo[1,2-b]pyridazin-3-ylethynyl)-4-methylbenzamide] the inhibition at 0.01 µM [3] was 50 to 60% and the inhibition at 0.5 µM [4] was 80 to 100%.

With `CN(c1nccnc1CNc1nc(Nc2ccc(N3CCN(Cc4ccc5c(c4)CN(N4CCC(=O)NC4=O)C5=O)CC3)cc2)ncc1C(F)(F)F)S(C)(=O)=O` [GT-07504, N-(3-(((2-((4-(4-((2-(2,4-dioxotetrahydropyrimidin-1(2H)-yl)-1-oxoisoindolin-5-yl)methyl)piperazin-1-yl)phenyl)amino)-5-(trifluoromethyl)pyrimidin-4-yl)amino)methyl)pyrazin-2-yl)-N-methylmethanesulfonamide] the inhibition at 0.01 µM [5] was -5 to 0% and the inhibition at 0.5 µM [6] was 80 to 100%.

For `Cc1ccc(C(=O)Nc2ccc(CN3CCN(Cc4ccc5c(c4)C(=O)N(N4CCC(=O)NC4=O)C5=O)CC3)c(C(F)(F)F)c2)cc1C#Cc1cnc2cccnn12` [GT-08217, N-(4-((4-((2-(2,4-dioxotetrahydropyrimidin-1(2H)-yl)-1,3-dioxoisoindolin-5-yl)methyl)piperazin-1-yl)methyl)-3-(trifluoromethyl)phenyl)-3-(imidazo[1,2-b]pyridazin-3-ylethynyl)-4-methylbenzamide], the inhibition at 0.01 µM [3] was 10 to 15% and the inhibition at 0.5 µM [4] was 80 to 100%.

`CN(Cc1ccc2c(c1)CN(N1CCC(=O)NC1=O)C2=O)C1CCN(c2ccc(Nc3ncc(C(F)(F)F)c(NCc4cccc(N(C)S(C)(=O)=O)c4)n3)cc2)CC1` [GT-08142, N-(3-(((2-((4-(4-(((2-(2,4-dioxotetrahydropyrimidin-1(2H)-yl)-1-oxoisoindolin-5-yl)methyl)(methyl)amino)piperidin-1-yl)phenyl)amino)-5-(trifluoromethyl)pyrimidin-4-yl)amino)methyl)phenyl)-N-methylmethanesulfonamide] gave an inhibition at 0.01 µM [5] of 40 to 50% and an inhibition at 0.5 µM [6] of 80 to 100%.

`COc1cc(N2CCC(N(C)CC3CCN(c4ccc5c(c4)C(=O)N(N4CCC(=O)NC4=O)C5=O)CC3)CC2)ccc1Nc1ncc(Cl)c(Nc2ccccc2P(C)(C)=O)n1` [GT-08253, 5-(4-(((1-(4-((5-chloro-4-((2-(dimethylphosphoryl)phenyl)amino)pyrimidin-2-yl)amino)-3-methoxyphenyl)piperidin-4-yl)(methyl)amino)methyl)piperidin-1-yl)-2-(2,4-dioxotetrahydropyrimidin-1(2H)-yl)isoindoline-1,3-dione] was tested, and the inhibition at 0.01 µM [1] was 15 to 20% and the inhibition at 0.5 µM [2] was 45 to 55%.
